# Results reported in US20250179066A1, “ZWITTERIONIC ANTIBACTERIAL COMPOUNDS” (Hoffmann-La Roche Inc., priority 2022, published 2025).
# Counter-ions that a name gives are not always drawn.
# Tested on: Acinetobacter baumannii ATCC17961
# Test: Antimicrobial susceptibility testing: 90% growth inhibitory concentration (IC90) determination
# Format: cell-based
# Details: 90% growth inhibitory concentration against Acinetobacter baumannii ATCC17961, Iso-Sensitest broth, OD 600 nm over 16 h; read-out: ATCC 17961 IC90
# How it was run: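 Twofold serial dilutions (e.g. 10 to 0.0195 μM final) in Iso-Sensitest broth inoculated at ~5×10^5 CFU/mL, incubated at 35±2° C. OD600 read every minute for 16 h; IC90 is the concentration inhibiting 90% of growth during logarithmic phase.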
row,Compound,IC90
1,"Cn1c(-c2cn(-c3ccc(N)cn3)nc2C(F)(F)F)cnc1C(=O)Nc1ccc(C(=O)N2CCN(C(=O)CCC[N+](CCCN)(CCCN)CC(=O)O)CC2)c(Cl)c1 [Example 66, bis(3-aminopropyl)-[4-[4-[4-[[5-[1-(5-amino-2-pyridyl)-3-(trifluoromethyl)pyrazol-4-yl]-1-methyl-imidazole-2-carbonyl]amino]-2-chloro-benzoyl]piperazino]-4-keto-butyl]-(carboxymethyl)ammonium. 1:1 2,2,2-trifluoroacetate]",0.72 µM

# Same assay, conditions: Acinetobacter baumannii, ATCC17961, 16 h, 90% growth inhibitory concentration against Acinetobacter baumannii ATCC17961, Iso-Sensitest broth, OD 600 nm over 16 h; read-out: ATCC 17961 IC90
row,Compound,IC90
1,"Cn1c(-c2cn(-c3ccc4[nH]cnc4n3)nc2C(F)(F)F)cnc1C(=O)Nc1ccc(C(=O)N2CCN(C(=O)[C@H]3CC[N@+](CC(=O)O)(CC4CNC4)CC3)CC2)c(Cl)c1 [Example 55, cis-2-[1-(azetidin-3-ylmethyl)-4-[4-[2-chloro-4-[[5-[1-(1H-imidazo[4,5-b]pyridin-5-yl)-3-(trifluoromethyl)pyrazol-4-yl]-1-methyl-imidazole-2-carbonyl]amino]benzoyl]piperazine-1-carbonyl]piperidin-1-ium-1-yl]acetic acid. 1:1 2,2,2-trifluoroacetate]",0.55 µM
2,"Cn1c(-c2cn(-c3cccc(N)n3)nc2C(F)(F)F)cnc1C(=O)Nc1ccc(C(=O)N2CCN(C(=O)C3CC[N+](CC(=O)O)(CC4CNC4)CC3)CC2)c(Cl)c1 (centres unmarked) [Example 56, 2-[4-[4-[4-[[5-[1-(6-amino-2-pyridyl)-3-(trifluoromethyl)pyrazol-4-yl]-1-methyl-imidazole-2-carbonyl]amino]-2-chloro-benzoyl]piperazine-1-carbonyl]-1-(azetidin-3-ylmethyl)piperidin-1-ium-1-yl]acetic acid. 1:1 2,2,2-trifluoroacetate]",0.56 µM
3,"Cn1c(-c2cn(-c3ccc(NC[C@@H]4C[C@H](F)CN4)cn3)nc2C(F)(F)F)cnc1C(=O)Nc1ccc(C(=O)N2CCN(C(=O)C3CC[N+](CC(=O)O)(CC4CNC4)CC3)CC2)c(Cl)c1 (stereo partly drawn) [Example 57, 2-[1-(azetidin-3-ylmethyl)-4-[4-[2-chloro-4-[[5-[1-[5-[[(2S,4S)-4-fluoropyrrolidin-2-yl]methylamino]-2-pyridyl]-3-(trifluoromethyl)pyrazol-4-yl]-1-methyl-imidazole-2-carbonyl]amino]benzoyl]piperazine-1-carbonyl]piperidin-1-ium-1-yl]acetic acid. 1:1 2,2,2-trifluoroacetic acid. 1:1 2,2,2-trifluoroacetate]",0.61 µM
4,"Cn1c(-c2cn(-c3ncc(N)cc3F)nc2C(F)(F)F)cnc1C(=O)Nc1ccc(C(=O)N2CCN(C(=O)[C@H]3CC[N@+](CC(=O)O)(CC4CNC4)CC3)CC2)c(Cl)c1 [Example 58, cis-2-[4-[4-[4-[[5-[1-(5-Amino-3-fluoro-2-pyridyl)-3-(trifluoromethyl)pyrazol-4-yl]-1-methyl-imidazole-2-carbonyl]amino]-2-chloro-benzoyl]piperazine-1-carbonyl]-1-(azetidin-3-ylmethyl)piperidin-1-ium-1-yl]acetic Acid.1:1 2,2,2-trifluoroacetate]",0.63 µM
5,"Cn1c(-c2cn(-c3ccc(N)cn3)nc2C(F)(F)F)cnc1C(=O)Nc1ccc(C(=O)N2CCN(C(=O)C3CC[N+](CC(=O)O)(CC4CNC4)CC3)CC2)c(Cl)c1 (centres unmarked) [Example 59, 2-[4-[4-[4-[[5-[1-(5-amino-2-pyridyl)-3-(trifluoromethyl)pyrazol-4-yl]-1-methyl-imidazole-2-carbonyl]amino]-2-chloro-benzoyl]piperazine-1-carbonyl]-1-(azetidin-3-ylmethyl)piperidin-1-ium-1-yl]acetic acid. 1:1 formate]",0.65 µM
6,"Cn1c(-c2cn(-c3ccc(N)cn3)nc2C(F)(F)F)cnc1C(=O)Nc1ccc(C(=O)N2CCN(C(=O)C3CC[N+](CCCC(=O)O)(CC4CNC4)CC3)CC2)c(Cl)c1 (centres unmarked) [Example 60, 4-[4-[4-[4-[[5-[1-(5-amino-2-pyridyl)-3-(trifluoromethyl)pyrazol-4-yl]-1-methyl-imidazole-2-carbonyl]amino]-2-chloro-benzoyl]piperazine-1-carbonyl]-1-(azetidin-3-ylmethyl)piperidin-1-ium-1-yl]butyric acid. 1:1 2,2,2-trifluoroacetate]",0.66 µM
7,"Cn1c(-c2cn(-c3ccc4c(n3)CCN4)nc2C(F)(F)F)cnc1C(=O)Nc1ccc(C(=O)N2CCN(C(=O)C3CC[N+](CC(=O)O)(CC4CNC4)CC3)CC2)c(Cl)c1 (centres unmarked) [Example 61, 2-[1-(azetidin-3-ylmethyl)-4-[4-[2-chloro-4-[[5-[1-(2,3-dihydro-1H-pyrrolo[3,2-b]pyridin-5-yl)-3-(trifluoromethyl)pyrazol-4-yl]-1-methyl-imidazole-2-carbonyl]amino]benzoyl]piperazine-1-carbonyl]piperidin-1-ium-1-yl]acetic acid. 1:1 2,2,2-trifluoroacetate]",0.67 µM
8,"Cn1c(-c2cn(-c3n[nH]c4ccccc34)nc2C(F)(F)F)cnc1C(=O)Nc1ccc(C(=O)N2CCN(C(=O)C3CC[N+](CC(=O)O)(CC4CNC4)CC3)CC2)c(Cl)c1 (centres unmarked) [Example 62, 2-[1-(azetidin-3-ylmethyl)-4-[4-[2-chloro-4-[[5-[1-(1H-indazol-3-yl)-3-(trifluoromethyl)pyrazol-4-yl]-1-methyl-imidazole-2-carbonyl]amino]benzoyl]piperazine-1-carbonyl]piperidin-1-ium-1-yl]acetic acid;formate]",0.68 µM
9,"Cn1c(-c2cn(-c3ccc4occc4n3)nc2C(F)(F)F)cnc1C(=O)Nc1ccc(C(=O)N2CCN(C(=O)C3CC[N+](CC(=O)O)(CC4CNC4)CC3)CC2)c(Cl)c1 (centres unmarked) [Example 63, 2-[1-(azetidin-3-ylmethyl)-4-[4-[2-chloro-4-[[5-[1-furo[3,2-b]pyridin-5-yl-3-(trifluoromethyl)pyrazol-4-yl]-1-methyl-imidazole-2-carbonyl]amino]benzoyl]piperazine-1-carbonyl]piperidin-1-ium-1-yl]acetic acid. 1:1 2,2,2-trifluoroacetate]",0.68 µM
10,"Cn1c(-c2cn(-c3ccc(N)cn3)nc2C(F)(F)F)cnc1C(=O)Nc1ccc(C(=O)N2CCN(C(=O)[C@H]3CC[N@@+](CC(=O)O)(CC4CNC4)CC3)CC2)c(Cl)c1 [Example 64, trans-2-[4-[4-[4-[[5-[1-(5-amino-2-pyridyl)-3-(trifluoromethyl)pyrazol-4-yl]-1-methyl-imidazole-2-carbonyl]amino]-2-chloro-benzoyl]piperazine-1-carbonyl]-1-(azetidin-3-ylmethyl)piperidin-1-ium-1-yl]acetic acid. 1:1 2,2,2-trifluoroacetic acid. 1:1 2,2,2-trifluoroacetate]",0.68 µM
11,"Cn1c(-c2cn(-c3ccc(N)c(N)n3)nc2C(F)(F)F)cnc1C(=O)Nc1ccc(C(=O)N2CCN(C(=O)C3CC[N+](CC(=O)O)(CC4CNC4)CC3)CC2)c(Cl)c1 (centres unmarked) [Example 67, 2-[1-(azetidin-3-ylmethyl)-4-[4-[2-chloro-4-[[5-[1-(5,6-diamino-2-pyridyl)-3-(trifluoromethyl)pyrazol-4-yl]-1-methyl-imidazole-2-carbonyl]amino]benzoyl]piperazine-1-carbonyl]piperidin-1-ium-1-yl]acetic acid. 1:1 2,2,2-trifluoroacetate]",0.72 µM
12,"CNc1ccc(-n2cc(-c3cnc(C(=O)Nc4ccc(C(=O)N5CCN(C(=O)C6CC[N+](CC(=O)O)(CC7CNC7)CC6)CC5)c(Cl)c4)n3C)c(C(F)(F)F)n2)cn1 (centres unmarked) [Example 68, 2-[1-(azetidin-3-ylmethyl)-4-[4-[2-chloro-4-[[1-methyl-5-[1-[6-(methylamino)-3-pyridyl]-3-(trifluoromethyl)pyrazol-4-yl]imidazole-2-carbonyl]amino]benzoyl]piperazine-1-carbonyl]piperidin-1-ium-1-yl]acetic acid. 1:1 2,2,2-trifluoroacetate]",0.76 µM
13,"Cn1c(-c2cn(-c3ccc(NC4CCC4)cn3)nc2C(F)(F)F)cnc1C(=O)Nc1ccc(C(=O)N2CCN(C(=O)C3CC[N+](CC(=O)O)(CC4CNC4)CC3)CC2)c(Cl)c1 (centres unmarked) [Example 69, 2-[1-(azetidin-3-ylmethyl)-4-[4-[2-chloro-4-[[5-[1-[5-(cyclobutylamino)-2-pyridyl]-3-(trifluoromethyl)pyrazol-4-yl]-1-methyl-imidazole-2-carbonyl]amino]benzoyl]piperazine-1-carbonyl]piperidin-1-ium-1-yl]acetic acid. 1:1 formate]",0.79 µM
14,"Cn1c(-c2cn(-c3ccc(N)cn3)nc2C(F)(F)F)cnc1C(=O)Nc1ccc(C(=O)N2CCN(C(=O)NCCCc3cc[n+](CC(=O)O)c(CCCN)c3)CC2)c(Cl)c1 [Example 70, 2-[2-(3-Aminopropyl)-4-[3-[[4-[4-[[5-[1-(5-amino-2-pyridyl)-3-(trifluoromethyl)pyrazol-4-yl]-1-methyl-imidazole-2-carbonyl]amino]-2-chloro-benzoyl]piperazine-1-carbonyl]amino]propyl]pyridin-1-ium-1-yl]acetic Acid.1:1 2,2,2-trifluoroacetic Acid.1:1 2,2,2-trifluoroacetate]",0.85 µM
15,"Cn1c(-c2cn(-c3cc(N)ccn3)nc2C(F)(F)F)cnc1C(=O)Nc1ccc(C(=O)N2CCN(C(=O)C3CC[N+](CC(=O)O)(CC4CNC4)CC3)CC2)c(Cl)c1 (centres unmarked) [Example 71, 2-[4-[4-[4-[[5-[1-(4-amino-2-pyridyl)-3-(trifluoromethyl)pyrazol-4-yl]-1-methyl-imidazole-2-carbonyl]amino]-2-chloro-benzoyl]piperazine-1-carbonyl]-1-(azetidin-3-ylmethyl)piperidin-1-ium-1-yl]acetic acid. 1:1 2,2,2-trifluoroacetate]",0.86 µM
16,"Cn1c(-c2cn(-c3ccc(N)cn3)nc2C(F)(F)F)cnc1C(=O)Nc1ccc(C(=O)N2CCN(C(=O)CCCN(CCCN)CC(=O)O)CC2)c(Cl)c1 [Example 72, 2-[3-aminopropyl-[4-[4-[4-[[5-[1-(5-amino-2-pyridyl)-3-(trifluoromethyl)pyrazol-4-yl]-1-methyl-imidazole-2-carbonyl]amino]-2-chloro-benzoyl]piperazino]-4-keto-butyl]amino]acetic acid. 1:1 2,2,2-trifluoroacetic acid]",0.87 µM
